The record followed here is PubChem BioAssay (NCI).

What all share (assay): NCI anticancer screen, dose series, 48 h
In assay [1] the test system is EKVX NSCLC.
The subject of assay [2] is HCT-15 colon.
Assay [3] concerns SF-539 CNS.
In assay [4] the test system is 786-0 renal.
The test system of assay [5] is HL-60(TB) leukemia.
Assay [6] relates to OVCAR-4 ovarian.
Assay [7] deals with U251 CNS.
The test system of assay [8] is IGROV1 ovarian.
Assay [9] concerns HOP-92 NSCLC.
For assay [10], the system named is TK-10 renal.

Values joined by “and” are separate entries in the source; they are usually repeats but may differ in a detail not shown here. Identical values can stand only once.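 A five-concentration, 48-hour dose response in 96-well plates underlies each endpoint, interpolated linearly between surrounding concentrations. Here, GI50 denotes the concentration required for 50% inhibition of growth. TGI denotes the concentration required for complete inhibition of growth.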

On to `O=C(COC(=O)[C@H](C[Se][Se]C[C@H](NC(=O)c1ccc(Br)cc1F)C(=O)OCC(=O)c1ccc(F)cc1)NC(=O)c1ccc(Br)cc1F)c1ccc(F)cc1`, for which the GI50 was 0.517 µM in assay [1]; 1.34 µM in assay [2]; 0.684 µM in assay [3]; 0.9 µM in assay [4]; 0.425 µM in assay [5]; 0.689 µM in assay [6]. In addition, the GI50 in [7] was 0.696 µM; in [8] it was 1.35 µM; in [9] it was 2.73 µM; in assay [10] it was 0.341 µM. Besides, the TGI in assay [1] is 1.52 µM; in assay [2], 4.03 µM; in assay [3], 1.8 µM; in assay [4] it was 2.23 µM; in [5] it was greater than 100 µM; in [6], 1.54 µM. Besides, the TGI in assay [7] stood at 1.92 µM; in assay [8], 3 µM; in assay [9], 6.66 µM; in assay [10] it was 0.9 µM.

For `Cc1c(N)nc(C2CC(=O)N2CC(N)C(N)=O)nc1C(=O)NC(C(=O)NC(C)C(O)C(C)C(=O)NC(C(=O)NCCc1nc(-c2nc(C(=O)NCCNCC(C)O)cs2)cs1)C(C)O)C(OC1OC(CO)C(O)C(O)C1OC1OC(CO)C(O)C(OC(N)=O)C1O)c1cnc[nH]1` (stereo unspecified), the GI50 in [1] is greater than 50 µM; in assay [2], 42.7 µM; in assay [3] it was 0.0499 µM; in [4], 2.3 µM; in assay [5], 24.4 µM; in assay [6], 10.7 µM. Further, the GI50 in [7] is 2.53 µM; in assay [8], 13.4 µM; in assay [10] it was 11.1 µM. In addition, the TGI in [1] is greater than 88.9 µM; in assay [2] it was 50 µM and > 75.9 µM; in [3], 1.32 µM and 0.255 µM; in assay [4], 50 µM and 36.8 µM; in assay [5], 50 µM and > 37.4 µM; in assay [6] it was 50 µM and > 100 µM. Further, the TGI was 50 µM and 24.2 µM in [7]; 50 µM and > 100 µM in [8]; 9.68 µM in assay [9]; 50 µM and > 100 µM in [10].

As for `O=C(Nc1ccccc1)Oc1ccccc1C1CCCCC1`, the TGI in assay [1] was 85.4 µM; in assay [2], 40.9 µM; in assay [3] it was greater than 100 µM; in assay [4], 53.2 µM; in assay [5], 35.2 µM; in assay [6], 37.3 µM. The TGI in [7] was 30.7 µM; in assay [8] it was greater than 100 µM; in assay [9] it was 31.3 µM; in [10], greater than 100 µM.

As to `O=C1OC(c2ccccc2)=N/C1=C\c1ccc(N(CCCl)CCCl)cc1`, the TGI in assay [1], in [2], in [3], in assay [4], in [5] and in [6] was greater than 100 µM each time. The TGI in assay [7] is greater than 100 µM; in assay [8] it was greater than 100 µM; in assay [9] it was greater than 84.6 µM; in assay [10], greater than 100 µM.

Take `CCCCCCCCCCCCCCCC(=O)NCC(OCC)OCC`: the TGI in [1], in assay [2], in assay [3], in assay [4], in assay [5] and in assay [6] was greater than 100 µM each time. In addition, the TGI in assay [7], in [8], in [9] and in assay [10] was greater than 100 µM each time.

As to `Cc1cccc(Cc2cnc(NC(=O)CCCOc3ccc(Cl)cc3)s2)c1`, the GI50 in assay [1] was 45 µM; in assay [2] it was 3.56 µM; in assay [3], 5.13 µM; in [4], 5.95 µM; in assay [5], 2.24 µM; in assay [6], 3.71 µM. Moreover, the GI50 is 4.88 µM in assay [7], 9.21 µM in assay [8], 34.3 µM in assay [9] and greater than 100 µM in [10]. Besides, the TGI is greater than 100 µM in [1]; greater than 100 µM in assay [2]; greater than 100 µM in [3]; greater than 100 µM in assay [4]; 5.1 µM in assay [5]; greater than 100 µM in assay [6]. The TGI in [7], in assay [8], in [9] and in [10] was greater than 100 µM throughout.

Consider `CCOC(=O)c1c(/C=N\Nc2ccccc2)nc2ccccc2c1-c1ccccc1`, for which the TGI was greater than 100 µM in assay [1]; greater than 100 µM in assay [2]; greater than 100 µM in assay [3]; greater than 100 µM in assay [4]; 50.1 µM in [5]; greater than 100 µM in assay [6]. Moreover, the TGI in assay [7], in assay [8], in assay [9] and in [10] was greater than 100 µM each time.

As to `Nc1nc(N)c(-c2ccccc2)c(C(=O)Nc2nccs2)n1`, the TGI in assay [1], in assay [2], in [3], in assay [4], in [5] and in [6] was greater than 100 µM throughout. Further, the TGI in [7], in assay [8], in assay [9] and in assay [10] was greater than 100 µM throughout.

Take `O=C(Nc1cccc(C(F)(F)F)c1)Nc1cc(S(=O)(=O)NC2CC2)ccc1-c1ccsc1`: the GI50 was 2.45 µM in assay [1]; 3.27 µM in [2]; 4.22 µM in assay [3]; 6.1 µM in [4]; 3.01 µM in assay [5]; 3.78 µM in assay [6]. The GI50 was 3.78 µM in assay [7], 7.18 µM in assay [8], 1.73 µM in [9] and 4.65 µM in assay [10]. In addition, the TGI in assay [1] came to 12.2 µM; in assay [2] it was 12.8 µM; in assay [3], 16.4 µM; in [4], 20.9 µM; in assay [5], 8.03 µM; in assay [6] it was 15.4 µM. In addition, the TGI in assay [7] worked out at 13.6 µM; in assay [8], 25.4 µM; in [9], 7.45 µM; in assay [10], 17.2 µM.

`COC(=O)/C(=C/c1ccc(OC)cc1)c1cc(OC)c(OC)c(OC)c1`: the TGI in [1] is greater than 100 µM; in assay [2] it was greater than 100 µM; in assay [3], 6.96 µM; in [4] it was greater than 86 µM; in assay [5], 3.06 µM; in assay [6], greater than 100 µM. In addition, the TGI in [7] is 39 µM; in [8], greater than 100 µM; in assay [9], greater than 55.9 µM; in assay [10], greater than 100 µM.

Consider `Oc1ccc(/C=N/Nc2nnc(N/N=C/c3ccc(O)cc3O)c3ccccc23)c(O)c1`, for which the GI50 is 0.349 µM in assay [1]; 0.332 µM in assay [2]; 0.593 µM in [4]; 0.376 µM in [5]; 0.449 µM in assay [6]; 0.312 µM in [7]. Moreover, the GI50 in assay [8] is 0.493 µM; in [9], 0.496 µM; in assay [10], 0.526 µM. Further, the TGI in [3] was 0.714 µM and 0.755 µM; in assay [4], 2.46 µM; in assay [5] it was 0.598 µM and 4.81 µM; in assay [6], 5.31 µM; in assay [7], 0.976 µM and 5.34 µM; in assay [8] it was 3.24 µM. The TGI in assay [9] is 2.65 µM; in assay [10], 9.18 µM.

As for `O=C(O)C12C3C4C1C1C2C3C41I` (stereo unspecified), the TGI in [1], in [2], in assay [3], in assay [4], in [5] and in assay [6] was greater than 100 µM in each case. Further, the TGI in assay [7], in assay [8], in assay [9] and in assay [10] was greater than 100 µM in each case.

In the case of `NC1CC(n2ccc(=O)[nH]c2=O)OC1C(O)CO` (stereo unspecified), the TGI in assay [1], in assay [2], in [3], in assay [4], in assay [5] and in assay [6] was greater than 100 µM each time. The TGI in [7], in [8], in [9] and in assay [10] was greater than 100 µM in each case.

In the case of `CC(C)=NO.CC(C)=NO.CC(C)=NO.CC(C)=NO.[Ti]`, the GI50 in assay [1], in assay [2], in [3], in assay [4], in [5] and in assay [6] was greater than 100 µM in each case. For the same compound, the GI50 in [7], in assay [8], in assay [9] and in assay [10] was greater than 100 µM throughout. Also, the TGI in [1], in assay [2], in [3], in [4], in [5] and in [6] was greater than 100 µM each time. For the same compound, the TGI in assay [7], in assay [8], in assay [9] and in assay [10] was greater than 100 µM throughout.

On to `O=C1NC2(CCCCC2)C2=C1CCCCC2`, for which the TGI in [1], in assay [2], in [3], in assay [4], in assay [5] and in [6] was greater than 100 µM each time. The TGI in assay [7], in [8], in assay [9] and in assay [10] was greater than 100 µM in each case.

Regarding `CC(=O)Nc1ccc(C(=O)COc2cccc(/C=C3\CCc4ccccc4C3=O)c2)cc1`, the GI50 in assay [1] is 14.3 µM; in assay [2], 11.2 µM; in assay [3], 19.2 µM; in [4], 26.5 µM; in [5], 4.4 µM; in assay [6] it was 1.01 µM. Also, the GI50 is 12.4 µM in assay [7], 21.1 µM in assay [8], 15.1 µM in assay [9] and 28.2 µM in assay [10]. Also, the TGI was 68.7 µM in assay [1]; 32 µM in assay [2]; 40.2 µM in assay [3]; greater than 100 µM in assay [4]; 22.7 µM in assay [5]; 26.1 µM in [6]. Further, the TGI in assay [7] was 27.8 µM; in assay [8], 99.2 µM; in assay [9], 60.9 µM; in assay [10], greater than 100 µM.

On to `COc1ccc(Cl)cc1Nc1nc(C(F)(F)F)ccc1C(=O)N/N=C/c1ccc(Cl)cc1`, for which the GI50 in [1] was 4.45 µM; in assay [2] it was 2.41 µM; in assay [3] it was 6.63 µM; in [4] it was 1.22 µM; in assay [5], 7.58 µM; in assay [6], 0.74 µM. Moreover, the GI50 in assay [7] was 4.79 µM; in assay [8], 11 µM; in assay [9], 11.4 µM; in assay [10], 0.513 µM. Besides, the TGI was greater than 100 µM in assay [1]; greater than 100 µM in assay [2]; 27.5 µM in assay [3]; 7.09 µM in assay [4]; 22 µM in assay [5]; greater than 100 µM in assay [6]. Besides, the TGI in assay [7] amounted to 69.3 µM; in assay [8] it was 79.1 µM; in assay [9], 67.2 µM; in [10] it was 16.8 µM.

Consider `O=C(c1ccccc1)c1ccc(N2C(=O)C3C4c5ccccc5C(/C=C/C(=O)c5ccccn5)(c5ccccc54)C3C2=O)cc1` (stereo unspecified), for which the GI50 is 3.02 µM in [1]; 1.69 µM in assay [2]; 2.07 µM in assay [3]; 2.55 µM in assay [4]; 1.9 µM in assay [5]; 4.3 µM in assay [6]. For the same compound, the GI50 in [7] was 2.08 µM; in assay [8] it was 1.86 µM; in assay [9], 1.8 µM; in assay [10], 6.68 µM. In addition, the TGI in [1] was 39 µM; in [2], 4.4 µM; in assay [3], 4.91 µM; in [4] it was 6.85 µM; in assay [5], 28.1 µM; in assay [6], greater than 100 µM. The TGI was 4.62 µM in assay [7], 4.48 µM in assay [8], 7.13 µM in assay [9] and greater than 100 µM in assay [10].

On to `O=[N+]([O-])c1cccc(C2=NOC3CCCC23)c1` (stereo unspecified), for which the TGI in assay [1], in assay [2], in assay [3], in assay [4], in assay [5] and in [6] was greater than 100 µM throughout. The TGI in assay [7], in assay [8], in assay [9] and in assay [10] was greater than 100 µM in each case.
